Measurements as given in patent US6589971B1, “Bis-benzazoles and their use as antineoplastic agents” (The Queens University of Belfast, priority 1999, dated 2003).
pIC50, pKd: −log10 of the molar value. Several values for one entry are separate records, joined by “and”; a condition that tells them apart may be missing. Equal values may be shown once.

Assays:
A2780-PT^R = assay: Cytotoxicity (growth inhibition), 96 hour exposure, ovarian cell line panel; settings: read-out: Cytotoxicity IC50, A2780-PT^R
Experimental: (§1) Assessment of growth inhibition was performed in a small panel of (e.g.) human ovarian carcinoma cell lines using the Sulforhodamine B (SRB assay) (Kelland et al, Cancer Research 54, 5618-5622 (1994). The cell lines grew as monolayers in Dulbecco's Modified Eagle's medium containing 10% foetal bovine serum (Imperial Laboratories, Andover, UK) supplemented with 2 mM glutamine and 0.5 μg/ml hydrocortisone in 6% CO2/94% air. The compound to be tested was dissolved in 10% dimethylsulfoxide. Cells were seeded into 96-well microtitre plates at 3000-5000 per well and allowed to attach overnight. Serial dilutions of drug in growth medium were then added to quadruplicate wells (with 8 control untreated wells) and left to incubate under normal growth conditions for 96 hr, unless otherwise stated. The medium was then removed and wells fixed with 10% trichloroacetic acid and stained with 0.4% SRB in 1% acetic acid as described previously (Kelland et al ref). Basic amino acid content in each well was then measured by solubilizing the bound SRB with 10 mM Tris and using a Titertek Multiscan MCC/340 MKII plate reader set at 540 nm. Mean absorbance was then expressed as a percentage of the control untreated well absorbance and plotted vs drug concentration. Comparisons were made in terms of IC50 values, (the concentration that reduced the mean absorbance to 50% of those in control wells) and Resistance Factors (RF, the IC50 in a resistant subline vs its parent line).

CH1 = assay: as above; settings: read-out: Cytotoxicity IC50, CH1
Experimental: as §1

SKOV-3 = assay: as above; settings: read-out: Cytotoxicity IC50, SKOV-3, SKOV-3 ovarian cell line
Experimental: as §1

A2780 = assay: as above; settings: read-out: Cytotoxicity IC50, A2780
Experimental: as §1

[1] = test system: A/T sites of a natural DNA fragment; assay: DNase I footprinting with a natural DNA fragment; assay type: binding; settings: for DNA site preference: natural DNA fragment
Excerpt: The ability of the head-to-head bis-benzimidazoles to discriminate between the 136 possible tetranucleotide sequences may be further enhanced by flanking sequence preferences. These remain to be systematically explored.

[2] = test system: ovarian carcinoma cell lines; assay: Cytotoxicity across the group of four ovarian carcinoma cell lines; assay type: cell-based, human; settings: versus compounds 8 and 9; in three out of the four lines
Experimental: Assessment of growth inhibition was performed in a small panel of (e.g.) human ovarian carcinoma cell lines using the Sulforhodamine B (SRB assay) (Kelland et al, Cancer Research 54, 5618-5622 (1994). The cell lines grew as monolayers in Dulbecco's Modified Eagle's medium containing 10% foetal bovine serum (Imperial Laboratories, Andover, UK) supplemented with 2 mM glutamine and 0.5 μg/ml hydrocortisone in 6% CO2/94% air. The compound to be tested was dissolved in 10% dimethylsulfoxide. Cells were seeded into 96-well microtitre plates at 3000-5000 per well and allowed to attach overnight. Serial dilutions of drug in growth medium were then added to quadruplicate wells (with 8 control untreated wells) and left to incubate under normal growth conditions for 96 hr, unless otherwise stated. The medium was then removed and wells fixed with 10% trichloroacetic acid and stained with 0.4% SRB in 1% acetic acid as described previously (Kelland et al ref). Basic amino acid content in each well was then measured by solubilizing the bound SRB with 10 mM Tris and using a Titertek Multiscan MCC/340 MKII plate reader set at 540 nm. Mean absorbance was then expressed as a percentage of the control untreated well absorbance and plotted vs drug concentration. […]

[3] = test system: ovarian lines in the NCI 60-cell line panel; assay: NCI 60-cell line panel; assay type: cell-based; settings: several ovarian lines
[4] = test system: transcription at A/T sites; assay: In vitro transcription assay; assay type: biochemical
Excerpt: Compound (13) has been examined in an in vitro transcription assay. […] In addition, compound (13) inhibited transcription at least 10-fold more efficiently than compound (9), consistent with its increased cytoxicity. It is thus tempting to speculate that the activity of (13) in vitro and in vivo may be related to its potent ability to inhibit transcription specifically at a small sub-set of A/T sites.

MCF-7 (breast) = assay: Growth inhibition, carcinoma cell lines (MTT assay or cell counting); assay type: cell-based; settings: 96 hour exposure, repeat determinations
Experimental: Compounds 8 and 13 were then tested more extensively against a range of carcinoma cell lines: MCF-7 (breast,); RKO and H630 (colon); A2780 and OAW42 (ovary) and H838 (lung).
Figures in bold were determined using cell counting method, all other values by the MTT assay.
The growth inhibition assays reported above were carried out using standard techniques, some examples of which are detailed below.

SMILES	pIC50 (A2780-PT^R)	pIC50 (CH1)	pIC50 (SKOV-3)	pIC50 (A2780)	affinity for 5′-TATA sites ([1]; 5′-TATA sites)	DNA site preference [1]	pKd ([1]; quantitative DNase I footprinting, 5′-AATT site, read-out: affinity for the 5′-AATT site)	binding to AT-sites, fold better than compound (9) ([1]; relative to compound (9))	cytotoxic activity, fold more active than the others [2]	activity in ovarian lines of NCI 60-cell line panel [3]	inhibition of transcription ([4]; at a number of A/T sites)	inhibition of transcription, fold more efficient than compound (9) ([4]; relative to compound (9))	pIC50 (MCF-7 (breast))
CN1CCN(c2ccc3[nH]c(-c4ccc5[nH]c(-c6ccc(O)cc6)nc5c4)nc3c2)CC1 [Hoechst 33258, reference compound]	5.02	4.58	< 4.00	4.92									
CN(C)CCCOc1ccc(-c2nc3cc(-c4ccc5[nH]c(-c6ccc(OCCCN(C)C)cc6)nc5c4)ccc3[nH]2)cc1 [Compound 13, 2,2-bis-[4′-(3″-Dimethylamino-1″-propyloxy)phenyl]-5,5-bi-1H-benzimidazole]	6.94	6.62	6.43	6.63	relatively low affinity	interact preferentially with some A/T sites	7.52	7-10 fold	over 10 fold	significant activity	effectively inhibits transcription at a number of A/T sites	at least 10 fold	7.37 and 7.16
Oc1ccc(-c2nc3cc(-c4ccc5[nH]c(-c6ccc(O)cc6)nc5c4)ccc3[nH]2)cc1 [Compound 9, 4′,4′-[5,5-bi-1H-Benzimidazole]-2,2-diylbis-phenol]	5.57	5.98	4.80	5.37		interact preferentially with some A/T sites							
